Results published in ChEMBL document CHEMBL1201862, “PubChem BioAssay data set” (2004).
The source made the active and inactive calls.

Experiments:
HeLa = experiment: Cytotoxicity counterscreen assay for transcriptional activators of heat shock protein 70 (Hsp70). [Related pubchem assays: 1203, 1252 ]; type: functional; conditions: Homo sapiens
[1] = biological target: T1, Carboxy-terminal domain RNA polymerase II polypeptide A small phosphatase 1 (Homo sapiens, UniProt Q9GZU7); experiment: inhibitors of CTDSP1, concentration-response testing, biochemical assay, absorbance-based, actives from ultra-high-throughput screening (AID 540297); type: functional
T1 sequence (Q9GZU7 whole entry): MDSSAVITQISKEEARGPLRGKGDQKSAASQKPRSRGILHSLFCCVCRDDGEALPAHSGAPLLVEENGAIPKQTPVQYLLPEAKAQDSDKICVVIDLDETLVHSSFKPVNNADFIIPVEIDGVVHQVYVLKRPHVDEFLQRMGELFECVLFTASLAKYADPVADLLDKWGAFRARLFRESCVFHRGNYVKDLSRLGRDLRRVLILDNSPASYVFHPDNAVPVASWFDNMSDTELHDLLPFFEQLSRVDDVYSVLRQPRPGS

Estrogen receptor = biological target: T2, Estrogen receptor (Homo sapiens, UniProt P03372);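 further: potency for inhibiting coactivator peptide recruitment to the receptor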
T2 sequence (P03372 whole entry): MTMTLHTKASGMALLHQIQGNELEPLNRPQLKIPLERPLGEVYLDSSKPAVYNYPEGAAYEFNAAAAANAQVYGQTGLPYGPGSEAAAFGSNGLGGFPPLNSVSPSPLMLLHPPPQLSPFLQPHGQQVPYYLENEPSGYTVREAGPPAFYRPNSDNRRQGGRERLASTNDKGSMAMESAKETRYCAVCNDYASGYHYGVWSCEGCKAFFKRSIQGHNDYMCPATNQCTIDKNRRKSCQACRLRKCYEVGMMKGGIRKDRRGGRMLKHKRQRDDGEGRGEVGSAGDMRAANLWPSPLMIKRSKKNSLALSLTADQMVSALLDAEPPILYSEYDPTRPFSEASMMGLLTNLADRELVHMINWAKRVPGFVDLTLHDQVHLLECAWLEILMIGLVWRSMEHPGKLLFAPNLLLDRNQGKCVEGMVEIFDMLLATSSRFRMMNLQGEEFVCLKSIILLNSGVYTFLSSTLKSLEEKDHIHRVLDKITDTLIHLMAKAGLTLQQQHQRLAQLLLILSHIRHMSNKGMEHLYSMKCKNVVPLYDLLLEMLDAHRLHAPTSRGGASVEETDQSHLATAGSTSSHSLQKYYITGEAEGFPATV

[2] = C. albicans growth with fluconazole, confirmation, fluorescence, retest (AID 2467); type: functional, cell-based
[3] = biological target: T3, Heat shock factor protein 1 (Mus musculus, UniProt P38532); experiment: inhibition of MG132-induced HSE-luciferase signal, confirmation, cell-based, NIH3T3, luminescence, dose retest (AID 2382); type: functional;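 further: NIH3T3 fibroblasts with HSF1-driven luciferase reporter stressed by proteasome inhibitor MG132; luminescence from HSF1-driven luciferase expression after 8 hours of MG132 stress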
T3 sequence (P38532 whole entry): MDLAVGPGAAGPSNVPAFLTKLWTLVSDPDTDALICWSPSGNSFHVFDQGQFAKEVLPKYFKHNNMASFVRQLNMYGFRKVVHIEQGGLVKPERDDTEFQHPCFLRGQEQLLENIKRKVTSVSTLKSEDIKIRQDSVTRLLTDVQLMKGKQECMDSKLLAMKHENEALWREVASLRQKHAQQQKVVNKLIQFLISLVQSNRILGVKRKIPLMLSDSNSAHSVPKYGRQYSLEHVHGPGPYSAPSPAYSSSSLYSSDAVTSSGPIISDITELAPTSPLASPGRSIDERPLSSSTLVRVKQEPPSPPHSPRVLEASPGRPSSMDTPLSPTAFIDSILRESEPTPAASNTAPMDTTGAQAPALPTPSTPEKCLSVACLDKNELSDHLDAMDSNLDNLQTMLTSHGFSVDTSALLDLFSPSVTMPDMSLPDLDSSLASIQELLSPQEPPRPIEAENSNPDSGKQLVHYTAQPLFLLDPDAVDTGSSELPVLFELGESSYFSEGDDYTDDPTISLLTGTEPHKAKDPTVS

[4] = biological target: Sphingosine 1-phosphate receptor 1 (Homo sapiens, UniProt P21453); type: functional;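 further: Tango beta-arrestin reporter U2OS cells stimulated with S1P near its EC80; inhibitor potency meaning antagonism of receptor activation by the natural agonist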
[5] = biological target: Heat shock protein HSP 90-alpha (Homo sapiens, UniProt P07900); type: functional, organism-based
INS1 = experiment: beta cell apoptosis inhibitors, cytokine rescue, dose response, luminescence, retest (AID 449756); type: functional, cell-based; conditions: Rattus norvegicus;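 further: cell death triggered by IL-1 beta plus TNF-alpha plus IFN-gamma mixture; protective hits raise ATP signal compared with cytokine alone wells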
[6] = microbe, parasite or virus in culture; type: functional; conditions: Mycobacterium tuberculosis
[7] = NIH-3T3 fibroblast cytotoxicity, dose response, cytotoxicity control, cell-based, fluorescence, Alamar Blue, secondary assay (AID 2327); type: functional;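 further: NIH-3T3 mouse fibroblasts cultured with fluconazole at 8 µg/mL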
[8] = biological target: Sphingosine 1-phosphate receptor 4 (Homo sapiens, UniProt O95977); experiment: Fluorescence dose response cell-based high throughput screening assay for antagonists of the Sphingosine 1-Phosphate Receptor 4 (S1P4). [Related pubchem assays: 1524 (Confirmation in triplicates.), 1510 (Primary screen.)]; type: functional
[9] = LGR2 antagonists, dose response, cell-based, HEK293, CRE-luciferase reporter, cherry pick, set 2 (AID 743343); type: functional;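 further: transfected cells were stimulated with diluted bursicon conditioned medium after compound addition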
[10] = luciferase reporter signal reduction – luminescence, H4-C neuroglioblastoma cells, dose response (AID 2458); type: functional, cell-based;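 further: H4 neuroglioblastoma cells stably carrying a luciferase reporter gene fusion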
[11] = ZM109 Env clade C HIV-1 fusion inhibitors, dose response, HeLa effector, CEM target cells, luciferase, cherry-pick (AID 652058); type: functional, cell-based
[12] = Luminescence-based counterscreen assay for KLF5 inhibitors: dose response cell-based high throughput screening assay to identify cytotoxic compounds using the IEC-6 intestinal epithelial cell line. [Related pubchem assays: 1700 (Primary screen.), 1834 (Confirmation screen.), 1858 (Summary AID.), 1905 (Counterscreen.)]; type: functional
[13] = inhibitors of SNCA 5'UTR-driven translation, confirmation, luminescence, H4 neuroglioblastoma cells, dose confirmation (AID 2454); type: functional, cell-based;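 further: H4 neuroglioblastoma cells carrying an alpha-synuclein 5'UTR luciferase reporter; potency for inhibition of the luciferase signal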
[14] = inhibitors of SNCA 5'UTR-driven reporter translation, confirmation, H4 neuroglioma cells, luminescence (AID 1988); type: functional, cell-based
cells = type: functional, cell-based
Paired box protein Pax-8 = Paired box protein Pax-8 (Homo sapiens, UniProt Q06710); experiment: inhibitors of PAX8-driven TPO luciferase reporter, dose response, RMG-I cells, cherry-pick (AID 687027); type: functional, cell-based;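 further: luciferase reporter driven by Pax8 target thyroperoxidase promoter measured by SteadyGlo luminescence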
[15] = cytotoxicity dependent on PAX8, dose response, cell-based, plate reader, dry powder (AID 743049); type: functional
[16] = off-target signal loss in HeLa-CEM21 co-culture – HeLa F-luc CTL cells, cherry-picked, counter-screen for HIV-1 Env fusion inhibitor project, dose response (AID 652040); type: functional, cell-based;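 further: potency for signal decrease marking cytotoxic or nonspecific inhibition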
[17] = inhibitors of clade B AD8 Env fusion, dose response, cell-based, cherry-pick (AID 652062); type: functional;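 further: luciferase signal from cell-cell fusion driven by HIV-1 clade B AD8 Env; potency is for inhibitors of fusion seen as a drop in luminescence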
[18] = PAX2 cell-based inhibition, dose response, selectivity assay for PAX8 inhibitor project, plate reader, dry powder samples (AID 743048); type: functional;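 further: HEK293 cells carrying a WT1 promoter luciferase reporter driven by expressed Pax2; potency is for inhibition of Pax2 driven reporter signal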
[19] = MC4R antagonists, dose response, counter-screen for LGR2 antagonist project, cell-based, plate reader, cherry pick (AID 743444); type: functional;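 further: transfected HEK 293 cells stimulated with alpha-MSH peptide; potency of inhibitors of the alpha-MSH evoked signal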
[20] = cytotoxicity in COV362 ovarian cancer cells, dose response, cytotoxicity control for PAX8 inhibitor project, cell-based, plate reader, dry powder, SA12 (AID 743144); type: functional
[21] = PAX5 activity inhibitors, dose response, selectivity assay for PAX8 inhibitor project, cell-based, plate reader, dry powder samples (AID 743047); type: functional;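 further: HEK293 cells carrying a Pax5 driven CD19 promoter luciferase reporter; potency of inhibitors that lower reporter luminescence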
[22] = biological target: T4, Microphthalmia-associated transcription factor (Homo sapiens, UniProt O75030); experiment: TRPM1 promoter luciferase signal decrease, dose response, MITF inhibitor project, cell-based, SK-MEL-5, cherry-picked, set 3 (AID 493073); type: functional
T4 sequence (O75030 whole entry): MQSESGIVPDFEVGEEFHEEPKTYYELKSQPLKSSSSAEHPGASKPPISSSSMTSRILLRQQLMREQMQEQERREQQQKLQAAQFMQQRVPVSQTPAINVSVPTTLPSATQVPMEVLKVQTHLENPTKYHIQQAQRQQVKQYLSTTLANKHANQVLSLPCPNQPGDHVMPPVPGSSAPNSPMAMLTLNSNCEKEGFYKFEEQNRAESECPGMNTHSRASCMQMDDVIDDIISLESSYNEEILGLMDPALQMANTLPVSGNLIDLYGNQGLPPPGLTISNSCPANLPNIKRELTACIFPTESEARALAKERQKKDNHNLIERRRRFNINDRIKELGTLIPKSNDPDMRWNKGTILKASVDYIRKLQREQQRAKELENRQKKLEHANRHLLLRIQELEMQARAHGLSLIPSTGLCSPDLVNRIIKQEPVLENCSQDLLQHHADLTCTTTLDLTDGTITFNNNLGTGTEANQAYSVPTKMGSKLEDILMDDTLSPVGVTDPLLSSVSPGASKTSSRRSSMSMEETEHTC

[23] = inhibitors of HIV Env-driven cell fusion, dose response, cherry-pick (AID 652057); type: functional, cell-based
[24] = HEK293 cell cytotoxicity, dose response, cytotoxicity control, plate reader, cherry-picked samples (AID 743446); type: functional, cell-based
[25] = HepG2 cell cytotoxicity, dose response, cytotoxicity control, plate reader, cherry-pick, antagonist series (AID 743416); type: functional, cell-based
[26] = inhibitors of Bluetongue virus cytopathic effect, confirmation, arbovirus, BSR cells (AID 1250); type: functional;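 further: protection from viral cytopathic effect measured as cell viability by ATP luminescence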

Sequence of Sphingosine 1-phosphate receptor 4 (O95977 whole entry): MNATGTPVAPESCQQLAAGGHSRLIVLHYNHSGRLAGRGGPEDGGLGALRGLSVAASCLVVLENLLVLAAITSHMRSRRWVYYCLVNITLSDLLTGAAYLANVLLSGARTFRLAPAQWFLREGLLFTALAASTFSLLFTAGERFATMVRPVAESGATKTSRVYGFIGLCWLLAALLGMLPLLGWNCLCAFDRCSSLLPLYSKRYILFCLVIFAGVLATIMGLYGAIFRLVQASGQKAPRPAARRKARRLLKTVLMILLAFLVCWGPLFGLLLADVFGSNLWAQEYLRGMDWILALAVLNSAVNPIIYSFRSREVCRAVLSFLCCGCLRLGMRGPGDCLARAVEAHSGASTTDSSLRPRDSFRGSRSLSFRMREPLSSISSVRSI
Sequence of Sphingosine 1-phosphate receptor 1 (P21453 whole entry): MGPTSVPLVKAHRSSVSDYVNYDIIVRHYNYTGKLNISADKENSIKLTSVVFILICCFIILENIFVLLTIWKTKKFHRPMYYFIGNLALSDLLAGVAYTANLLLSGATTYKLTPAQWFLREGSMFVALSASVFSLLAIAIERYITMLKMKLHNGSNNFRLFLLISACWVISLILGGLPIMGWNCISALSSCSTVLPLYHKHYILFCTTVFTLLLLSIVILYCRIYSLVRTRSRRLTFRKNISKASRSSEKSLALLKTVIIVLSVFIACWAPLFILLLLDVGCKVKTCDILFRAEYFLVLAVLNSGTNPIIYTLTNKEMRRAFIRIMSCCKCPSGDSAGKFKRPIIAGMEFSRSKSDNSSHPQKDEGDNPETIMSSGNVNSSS
Sequence of Paired box protein Pax-8 (Q06710 whole entry): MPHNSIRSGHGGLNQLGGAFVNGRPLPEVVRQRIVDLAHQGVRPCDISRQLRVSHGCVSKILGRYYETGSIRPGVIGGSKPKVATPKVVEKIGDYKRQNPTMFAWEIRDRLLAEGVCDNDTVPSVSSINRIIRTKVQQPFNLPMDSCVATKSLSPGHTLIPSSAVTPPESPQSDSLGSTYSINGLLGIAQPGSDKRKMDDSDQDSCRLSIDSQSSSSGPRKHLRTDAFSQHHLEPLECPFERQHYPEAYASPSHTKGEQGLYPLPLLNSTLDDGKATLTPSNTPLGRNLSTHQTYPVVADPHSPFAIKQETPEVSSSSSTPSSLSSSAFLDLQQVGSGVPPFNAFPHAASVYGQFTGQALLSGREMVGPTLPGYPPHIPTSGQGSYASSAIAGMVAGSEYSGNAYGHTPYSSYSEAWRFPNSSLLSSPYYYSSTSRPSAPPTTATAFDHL

Structure (SMILES): Cc1nn(C)c(C)c1NC(=O)c1ccc(S(=O)(=O)N(C)C)cc1
- CC50 (HeLa): > 99 µM (not active)

Structure (SMILES): CCCN(CCC)S(=O)(=O)c1ccc(NC(=O)Cc2cccs2)cc1
- IC50 [1]: 9.83 µM (active)
- IC50 (Estrogen receptor): 16.7 µM (active)

Structure (SMILES): Cc1cc([N+](=O)[O-])c2ccccc2[n+]1[O-]
- EC50 [2]: 0.097 µM (active)
- EC50 [3]: 6.35 µM (active)
- IC50 [4]: 3.28 µM (active)
- AC50 [5]: < 0.195 µM (active)
- AC50 (INS1): 2.24 µM (active)
- CC50 [6]: < 0.16 µM (active)
- EC50 [7]: 4.65 µM (inconclusive)
- IC50 [8]: 0.22 µM (active)

Structure (SMILES): Cc1ccccc1OCC(=O)Nc1cccc(C(=O)O)c1
- AC50 [9]: 0.669 µM (active)
- EC50 [10]: 0.541 µM (active)
- AC50 [11]: 7.82 µM (active)
- IC50 [12]: > 39.8 µM (not active)
- EC50 [13]: 0.393 µM (active)
- EC50 [14]: < 0.1 µM (active)
- EC50 (cells): 0.725 µM (active)
- AC50 (Paired box protein Pax-8): 2.3 µM (active)
- AC50 [15]: > 100 µM (inactive)
- AC50 [16]: 0.951 µM (active)
- AC50 [17]: 1.27 µM (active)
- AC50 [18]: 3.61 µM (active)
- AC50 [19]: 1.05 µM (active)
- AC50 [20]: > 100 µM (inactive)
- AC50 [21]: 3.76 µM (active)
- AC50 [22]: 1.05 µM (active)
- AC50 [23]: 0.342 µM (active)

Structure (SMILES): COc1ccc(-c2csc(NC(=O)c3ccc(OCC(=O)N4CCOCC4)c(OC)c3)n2)cc1
- AC50 [9]: 18.4 µM (active)
- AC50 [24]: 43.1 µM (active)
- AC50 [25]: > 52 µM (inactive)
- IC50 [26]: 27.5 µM (active)
- AC50 [19]: 22.4 µM (active)
